Read-outs that look alike come from different tables or passages of the source.
Experiments:
[1] = test system: Malassezia furfur (ATCC 14521); assay: Minimum Inhibitory Concentration (MIC) agar dilution test; format: cell-based; settings: for MIC: M. furfur, mDixon agar, 30°, 4-5 days; for Retained Activity: dispersed particle form (in water) vs. dissolved in an effective solvent (DMSO)
Procedure: ^1The Minimum Inhibitory Concentration is indicative of anti-fungal efficacy. Generally, the lower the value of the composition, the better its anti-fungal efficacy, due to increased inherent ability of the anti-dandruff agent to inhibit the growth of microorganisms.
Malassezia furfur was grown in a flask containing mDixon medium (see E. Gueho, et al. Antoinie Leeuwenhoek (1996), no. 69, 337-55, which description is incorporated by reference herein). Dilutions of solubilized anti-microbial active were then added to test tubes containing molten mDixon agar. M. furfur inoculum was added to each tube of molten agar, the tube vortexed, and the contents poured into separate sterile petri dishes. […] The lowest tested dilution of anti-microbial active that yields no growth is defined as the Minimal Inhibitory Concentration (MIC).
Experimental Procedure • 1) Malassezia furfur was grown in a 125 ml Erlenmeyer flask containing 50 ml “mDIXON” medium at 200 rpm and 30° C. until turbid. • 2) Selected dilutions were prepared using an appropriate dilution series, of the anti-microbial active or combination in solvent, which allowed the sample active to be solubilized prior to addition to the final test agar. For each concentration of the ZPT samples, the solvent was “DMSO”; for other samples, the solvent was water or “DMSO” or other suitable solvent. • 3) 0.25 ml dilutions of anti-microbial active were added to test tubes containing 9.5 ml molten “mDIXON” agar (held at 45° C. in a water bath). • 4) 0.25 M. furfur inoculum (adjusted to 5×10^5 cfu/ml by direct count) was added to each test tube of molten agar. • 5) Each tube was vortexed, and the contents poured into separate petri dishes. • 6) After the agar solidified, the plates inverted and incubated at 30° for 4-5 days. • 7) The plates were then observed for visible M. furfur growth. Particle Size Determination Method

[2] = cited from earlier work

MIC ([1]; Dispersed in Water): 2.0 ppm
MIC ([1]; Malassezia furfur, ATCC14521, Dissolved in DMSO, read-out: MIC): 2 µg/mL
Structure (SMILES): Cc1ccc(S(=O)(=O)C(I)I)cc1 [diiodomethyl-p-tolylsulfone, Diiodomethyl-p-tolylsulfone]
Retained Activity [1]: about 100%
Retained Activity ([1]; listed as AMICAL 48): 100%
Retained Activity ([1]; listed as Diiodomethyl-p-tolylsulfone): 100%
water solubility [2]: less than 5 ppm

From US20060171912A1, “Diiodomethyl-p-tolylsulfone as a particulate dispersion in a liquid solvent” (priority 2005, published 2006)
